Results as given in patent publication US7259167B2, “Antimalarial and antiproliferative pharmacophore models, novel tryptanthrin compounds having increased solubility, and methods of making and using thereof” (United States of America as Represented by the Secretary of …, priority 2002, dated 2007).

Columns and labels:
[1] = Hemin binding activity assay by 1H NMR (pseudocontact shifts); settings: DMSO-d6
Method: As provided in Example 5, the hemin binding affinity for a series of tryptanthrin compounds with functional groups at the 8-position with different electron donating/withdrawing characteristics corresponding with the pharmacophore model of the present invention was determined by ^1H NMR. The binding interaction was measured as a function of the induced up-field shift in the chemical shift as a function of increasing hemin concentration. ^1H spectra of selected compounds each analog with an increasing concentration of hemin were collected and analyzed for the effect of the pseudocontact shifts.
It is well known that bio-molecules containing the paramagnetic species Fe^+3 induce via pseudocontact effect (a thru-space paramagnetic interaction, similar to the thru-space diopolar interaction or NOE) up-field chemical shifts of the ^1H, ^13C, ^15N atoms of bound ligands. See Serge Moreau et al. (1985) Biochemica et. Biophysica Acta 107-116; Alam, S. L., et al. (1998) J. Biomol. NMR 11:119-133; and Kalodimos, C. G., et al. (2000) J. Inorg. Biochem. 79:371-380, which are herein incorporated by reference. […] See Crowley, P. B., et al. (2001) J. Am. Chem. Soc. 123:10444-10453, which is herein incorporated by reference. Consequently, the closer a particular proton on the ligand is to the Fe^+3 atom, the greater the induced Δδ.
The hemin binding affinity for a series of tryptanthrin compounds with functional groups at the 8-position with different electron donating/withdrawing characteristics corresponding with the pharmacophore model of the present invention was determined using ^1H NMR. The binding interaction was measured as a function of the induced up-field shift in the chemical shift as a function of increasing hemin concentration. ^1H spectra of each analog with an increasing concentration of hemin were collected and analyzed for the effect of the pseudocontact shifts.
To each sample, a 100 or 200 μl aliquot of a known concentration of hemin dissolved in 1.0 ml of DMSO-d6 was added. The concentrations of the tryptanthrin compounds compounds ranged from 3.0 to 8.0 mg per 500 μl of DMSO. A corresponding solution of hemin in DMSO was prepared to maintain a molar ratio of tryptanthrin compounds to hemin in the range of 1:1.0 to 1:1.5.
All ^1H NMR data was collected using a Bruker Avance-600 spectrometer using methods known in the art. See e.g. Wang, J., et al. (2001) J. Am. Chem. Soc. 123:8080-8088, which is herein incorporated by reference. The proton spectra were collected at 300 K, using a spectral width of 9090.9 Hz. All spectra were acquired with 64k data points in F2. All chemical shifts were referenced internally to TMS (0.00 ppm). The spectra were processed using XWINNMR (Bruker BioSpin Corporation, Billerica, Mass.) on a Silicon Graphics O2 workstation (Silicon Graphics, Mountain View, Calif.). Each data set was multiplied by a Gaussain window function with 0.3 Hz line broadening in each dimension before transformation.

[2] = Solubility of DN49 in various solvents; format: physicochemical; settings: for solubility: organic solvent or mixture
Method: The solubility of DN49 (WR288510) was tested in various solvents to determine the properties encouraging solubility. […] An N—H group on an aromatic compound might be forming a complex with tryptanthrin. […] (200 mM) concentration in a solvent. The temperature is a close approximation to the temperature required to achieve solubility. Color is the color of the solution; DN49 is a yellow compound and colors other than yellow indicate close interaction between solvent and solute. Precipitate is whether or not DN49 precipitated out upon cooling to room temperature.

P. berghei P-line = test: Bioavailability and efficacy of DN49 in infected mice; format: in vivo
Method: On day 0, each mouse in groups 1 to 7 was inoculated intraperitoneally with 0.1 ml, 1.0×10^6 P. berghei P-line infected red blood cell from donor mice diluted in PBS.
(§1) DN49 was a yellow powder and dissolved completely in hot DMSO. The hot DMSO solution was then diluted 1:10 in PBS.
On days 3 to 5, 0.2 ml of the three dosages at 2.5, 1.25, 0.625 mg/kg of DN49 were administered intravenously by a 29G, 0.5-inch needle (Groups 2 to 4). In addition, 0.2 ml of the three dosages at 30, 15, 7.5 mg/kg of DN49 were administered orally by a 20G, 2.5-inch needle (Groups 5 to 7). Drug administrations were performed once daily for 3 days. Group 1 served as vehicle control, and PBS was administered orally.

[3] = Characteristics of DN49 dosing preparation; format: physicochemical; settings: Hot DMSO and further diluted in PBS (1:10)
Method: as §1

Compound: O=C1c2ccccc2-n2c1nc1ncccc1c2=O [DN49]
- Maximum induced Δδ ([1]; hemin induced pseudocontact chemical shift): 0.558 ppm
- Concentration dependence Δδ ([1]; slope of Δδ v. hemin concentration): 0.09778 ppm/mole %
- Precipitate upon cooling to room temperature ([2]; 1,4-dioxane): yes
- solubility ([2]; 1,4-dioxane, 80 °C): > 25 mg/mL
- solubility ([2]; 3,4-dihydro-2H-pyran): < 25 mg/mL
- Precipitate upon cooling to room temperature ([2]; Aniline): No
- solubility ([2]; Aniline, 18 °C): > 25 mg/mL
- Precipitate upon cooling to room temperature ([2]; Benzoic acid): Yes
- solubility ([2]; Benzoic acid, 50 °C): > 25 mg/mL
- solubility ([2]; Benzyl alcohol, 30 °C, Benzyly alcohol): > 25 mg/mL
- Precipitate upon cooling to room temperature ([2]; Benzyly alcohol): No
- solubility ([2]; Diethylamine): < 25 mg/mL
- solubility ([2]; Dimethylsulfoxide, Dimethylsufoxide): < 25 mg/mL
- Precipitate upon cooling to room temperature ([2]; Indole): Solidified
- solubility ([2]; Indole, 53 °C): > 25 mg/mL
- Precipitate upon cooling to room temperature ([2]; Isoquinoline): Solidified
- solubility ([2]; Isoquinoline): > 25 mg/mL
- Precipitate upon cooling to room temperature ([2]; N-methylbenzylamine): No
- solubility ([2]; N-methylbenzylamine): > 25 mg/mL
- solubility ([2]; N-methylpiperidine): < 25 mg/mL
- Precipitate upon cooling to room temperature ([2]; Nitrobenzene): Yes
- solubility ([2]; Nitrobenzene): > 25 mg/mL
- Precipitate upon cooling to room temperature ([2]; Phenol): solidified
- solubility ([2]; Phenol): > 25 mg/mL
- Precipitate upon cooling to room temperature ([2]; Piperidine): No
- solubility ([2]; Piperidine): > 25 mg/mL
- Precipitate upon cooling to room temperature ([2]; Pyridine): Yes
- solubility ([2]; Pyridine): > 25 mg/mL
- Precipitate upon cooling to room temperature ([2]; Pyrrole): No
- solubility ([2]; Pyrrole): > 25 mg/mL
- Precipitate upon cooling to room temperature ([2]; Pyrrolidine): No
- solubility ([2]; Pyrrolidine): > 25 mg/mL
- solubility ([2]; Tetrahydrofuran): < 25 mg/mL
- solubility ([2]; Toluene): < 25 mg/mL
- solubility ([2]; Triethylamine): < 25 mg/mL
- extension of life of mice (P. berghei P-line; 2.5 mg/kg intravenously once daily at study days 3 to 5): 2 days
- extension of life of mice (P. berghei P-line; 30 mg/kg orally once daily at study days 3 to 5): 2 days
- mean parasitemia on day 6 (P. berghei P-line; Group 2, 2.5 mg/kg intravenously once daily days 3 to 5): 54.75%
- mean parasitemia on day 6 (P. berghei P-line; Group 3, 1.25 mg/kg intravenously once daily days 3 to 5): 55.75%
- mean parasitemia on day 6 (P. berghei P-line; Group 4, 0.625 mg/kg intravenously once daily days 3 to 5): 61.18%
- mean parasitemia on day 6 (P. berghei P-line; Group 5, 30 mg/kg orally once daily days 3 to 5): 56.11%
- mean parasitemia on day 6 (P. berghei P-line; Group 6, 15 mg/kg orally once daily days 3 to 5): 54.26%
- mean parasitemia on day 6 (P. berghei P-line; Group 7, 7.5 mg/kg orally once daily days 3 to 5): 64.23%
- acute toxicity or other deaths prior to day 6 (P. berghei P-line; IV 0.625-2.5 mg/kg, oral 7.5-30 mg/kg): no acute toxicity
- Toxic effects (P. berghei P-line; at the dosages given (up to 2.5 mg/kg IV, 30 mg/kg oral)): not observed
- activity at lower dosages (P. berghei P-line; dosages below 2.5 mg/kg intravenously or 30 mg/kg orally): no significant activity
- solubility [3]: Partial
